From patent publication US20250114460A1, “NOVEL PLK1 DEGRADATION INDUCING COMPOUND” (UPPTHERA, INC., priority 2021, published 2025)

Target: T1, PLK1 (Homo sapiens, UniProt P53350)
T1 construct: endogenous in cells; host or cells: HeLa LgBit (Plk1-HiBit KI): HeLa stably expressing LgBit, with a CRISPR/Cas9 knock-in of HiBit at the endogenous PLK1 locus
Assay: Luciferase assay for PLK1 in HeLa LgBit (Plk1-HiBit KI) cell line
Format: cell-based
Conditions: 300 nM compound, luminescence after 9 hours
Experimental: 2. Luciferase Assay for PLK1
(1) Preparation and Culture of HeLa LgBit (Plk1-HiBit KI) Cell Line
A HeLa cell line in which the LgBit vector was transfected and expressed stably was prepared. Then, after constructing gRNA and donor to express the HiBit amino acid sequence behind the C-terminal of the Plk1 gene, which was inherent in the cell, it was inserted into the cell together with a vector capable of expressing CRISPR/Cas9. Only the cells in which the insertion was completed and knock-in had progressed were selected, sub-cultured and used.
(2) Treatment of Compounds of the Present Invention and Method of Luciferase Assay
In the case of HeLa LgBit (Plk1-HiBit KI), the compounds were treated after being released after thymidine block, and the process was as follows. Thymidine (Sigma-Aldrich Cat. No. T9250-5G) was completely dissolved in DW and used in the experiment. For thymidine block, the products were treated with 2 mM of thymidine and then incubated for 24 hours. For release and chemical treatment, the medium was suctioned and washed with 1×PBS. TrypLE™ was added and incubated in 37° C. CO2 incubator for 5 min. Cells neutralized by adding complete media were counted through a counter. For each well of a 96-well culture plate (SPL), 3.3×10^4 cells and a total medium volume of 150 μL were seeded and incubated in a CO2 incubator.
Each cell line was incubated in a CO2 incubator for 18 hours, and Endurazine was added to each well to make up 4% of the total volume. After adding the compound of the present invention in a 96-well white plate (SPL) to a concentration of 300 nM, the wavelength of the plate reader (BMG Labtech, CLARIOstar Plus) was set to […], and then the luminescence was tracked in real time.
In Table 2, Activity represents the ratio of the luminescense value of each Exemplary Compound treatment group to DMSO treatment group (+++: <0.3, ++<0.6, +<0.7).

T1 sequence (P53350 whole entry): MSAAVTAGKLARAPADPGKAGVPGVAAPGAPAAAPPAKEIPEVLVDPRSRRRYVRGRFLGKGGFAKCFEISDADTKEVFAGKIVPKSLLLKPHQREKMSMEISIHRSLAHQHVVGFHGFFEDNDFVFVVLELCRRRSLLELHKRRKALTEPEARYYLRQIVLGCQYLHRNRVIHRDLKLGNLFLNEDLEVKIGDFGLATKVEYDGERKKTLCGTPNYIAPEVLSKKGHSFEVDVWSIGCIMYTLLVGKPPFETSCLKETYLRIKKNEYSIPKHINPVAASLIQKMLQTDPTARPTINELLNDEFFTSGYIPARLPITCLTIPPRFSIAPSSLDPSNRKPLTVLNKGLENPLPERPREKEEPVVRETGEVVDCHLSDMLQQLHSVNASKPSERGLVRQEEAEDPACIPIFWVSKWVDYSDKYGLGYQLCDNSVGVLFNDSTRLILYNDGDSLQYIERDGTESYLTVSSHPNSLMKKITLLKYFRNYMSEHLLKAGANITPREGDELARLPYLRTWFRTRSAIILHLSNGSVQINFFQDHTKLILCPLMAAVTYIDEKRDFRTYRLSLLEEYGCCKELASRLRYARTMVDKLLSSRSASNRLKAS

Activity: ratio of the luminescense value of each Exemplary Compound treatment group to DMSO treatment group	SMILES
++ (++<0.6)	COc1cc(C(=O)N2CCC(N3CCN(CCOCCNc4ccc5c(c4)C(=O)N(C4CCC(=O)NC4=O)C5=O)CC3)CC2)c(F)cc1Nc1ncc2c(n1)N(C1CCCC1)CC(F)(F)C(=O)N2C (stereo not drawn) [Compound 191, 5-((2-(2-(4-(1-(4-((9-cyclopentyl-7,7-difluoro-5-methyl-6-oxo-6,7,8,9-tetrahydro-5H-pyrimido[4,5-b][1,4]diazepin-2-yl)amino)-2-fluoro-5-methoxybenzoyl)piperidin-4-yl)piperazin-1-yl)ethoxy)ethyl)amino)-2-(2,6-dioxopiperidin-3-yl)isoindoline-1,3-dione]
++ (++<0.6)	COc1cc(C(=O)NN2CCN(C3CCN(c4ccc5c(c4)C(=O)N(C4CCC(=O)NC4=O)C5=O)CC3(F)F)CC2)ccc1Nc1ncc2c(n1)N(C(C)C)CC(F)(F)C(=O)N2C (stereo not drawn) [Compound 168, 4-((7,7-difluoro-9-isopropyl-5-methyl-6-oxo-6,7,8,9-tetrahydro-5H-pyrimido[4,5-b][1,4]diazepin-2-yl)amino)-N-(4-(1-(2-(2,6-dioxopiperidin-3-yl)-1,3-dioxoisoindolin-5-yl)-3,3-difluoropiperidin-4-yl)piperazin-1-yl)-3-methoxybenzamide]

Further lines, the compound ahead of its results:

SMILES	Activity: ratio of the luminescense value of each Exemplary Compound treatment group to DMSO treatment group
COc1cc(C(=O)NC2CCN(CCNc3cccc4c3C(=O)N(C3CCC(=O)NC3=O)C4=O)CC2)c(F)cc1Nc1ncc2c(n1)N(C1CCCC1)CC(F)(F)C(=O)N2C (stereo not drawn) [Compound 1, 4-((9-cyclopentyl-7,7-difluoro-5-methyl-6-oxo-6,7,8,9-tetrahydro-5H-pyrimido[4,5-b][1,4]diazepin-2-yl)amino)-N-(1-(2-((2-(2,6-dioxopiperidin-3-yl)-1,3-dioxoisoindolin-4-yl)amino)ethyl)piperidin-4-yl)-2-fluoro-5-methoxybenzamide]	++ (++<0.6)
COc1cc(C(=O)NC2CCN(Cc3ccc(COc4ccc5c(c4)CN([C@H]4CCC(=O)NC4=O)C5=O)cc3)CC2)ccc1Nc1ncc2c(n1)N(C1CCCC1)CC(F)(F)C(=O)N2C [Compound 22, (S)-4-((9-cyclopentyl-7,7-difluoro-5-methyl-6-oxo-6,7,8,9-tetrahydro-5H-pyrimido[4,5-b][1,4]diazepin-2-yl)amino)-N-(1-(4-(((2-(2,6-dioxopiperidin-3-yl)-1-oxoisoindolin-5-yl)oxy)methyl)benzyl)piperidin-4-yl)-3-methoxybenzamide]	+ (+<0.7)
COc1cc(C(=O)Nc2ccc(OCCN3CCN(c4cccc5c4C(=O)N(C4CCC(=O)NC4=O)C5=O)CC3)cc2)c(F)cc1Nc1ncc2c(n1)N(C1CCCC1)CC(F)(F)C(=O)N2C (stereo not drawn) [Compound 141, 4-((9-cyclopentyl-7,7-difluoro-5-methyl-6-oxo-6,7,8,9-tetrahydro-5H-pyrimido[4,5-b][1,4]diazepin-2-yl)amino)-N-(4-(2-(4-(2-(2,6-dioxopiperidin-3-yl)-1,3-dioxoisoindolin-4-yl)piperazin-1-yl)ethoxy)phenyl)-2-fluoro-5-methoxybenzamide]	++ (++<0.6)
COc1cc(C(=O)NC2CC(N(C)CC3CCN(c4ccc5c(c4)C(=O)N(C4CCC(=O)NC4=O)C5=O)CC3)C2)ccc1Nc1ncc2c(n1)N(C1CCCC1)CC(F)(F)C(=O)N2C (stereo not drawn) [Compound 104, 4-((9-cyclopentyl-7,7-difluoro-5-methyl-6-oxo-6,7,8,9-tetrahydro-5H-pyrimido[4,5-b][1,4]diazepin-2-yl)amino)-N-(3-(((1-(2-(2,6-dioxopiperidin-3-yl)-1,3-dioxoisoindolin-5-yl)piperidin-4-yl)methyl)(methyl)amino)cyclobutyl)-3-methoxybenzamide]	++ (++<0.6)
